This is an account of results in patent publication US20220110318A1, “COMPOSITIONS AND METHODS FOR POLLEN STORAGE AND PRESERVATION” (PIONEER HI-BRED INTERNATIONAL, INC., priority 2018, published 2022).

Assay [1] concerns maize pollen. The assay is described as follows: Pollen tube formation with germination media comprising surfactant. The format is cell-based. As to conditions: surfactant at both 0.01% and 0.1% in germination media, pollen stored 1° C. for a day, within two hours. The method, then:
Maize pollen was stored in 326C media with 1000 mM Sucrose and 500 mM Betaine at a pH of 9.0. Pollen was stored at 1° C. for a day. After this time period, germination medias comprising surfactant were added in amounts up to five times the volume of storage media. Surfactant conditions tested were 0.1% Tween 20, 0.01% Tween 20, 0.1% Pluronic F68, and 0.01% Pluronic F68 (final concentration). Pollen was observed microscopically prior to replacement of media and two hours after replacement. Pluronic F68, also known as poloxamer 188, is a non-ionic surfactant, a member of a class of polaxamers comprising non-ionic triblock copolymers composed of a central hydrophobic chain of polyoxypropylene flanked by two hydrophilic chains of polyoxyethylene.

The subject of assay [2] is maize pollen. In words: Protective compounds: prevention of pollen bursting on germination media. The format is cell-based. The conditions noted are these: loose pollen soaked 20 minutes, compared with fresh pollen without protection. The protocol: In this example, various putative protective compounds were evaluated for their efficacy in preventing pollen from bursting on germination media. Nine different chemical treatments were applied to loose pollen shed from maize plants. Pollen was soaked in chemical solution for 20 minutes and then placed on media to observe the impact on pollen viability and compared with fresh pollen without protection as control.

Take Tween 20: in the assay on maize pollen [1], the Pollen tube formation entry is listed as “lysis but no pollen tube formation”.

For `C[S+](C)[O-]` [5% DMSO, DMSO], in the assay with maize pollen [2], the “Preventing pollen from bursting on germination media” value is recorded as “did not prevent pollen from bursting”.
